Tests used:
[1] = system: fish reared within the water tank for fish; assay type: in vivo; settings: for effect on the fish: in vivo; for damage or injury of the fish caused by the pollution: small amount
Description: This is because the oil keeps floating on a water surface thereof.
In this context, the present inventor has confirmed according to tests that the conventional automatic water quality surveillance apparatus with fish cannot sense the oil and/or the mold odor substances based on abnormal behavior of the fish.

[2] = system: cyprinodonts; parameters: species or system Oryzias latipes; settings: in vivo
Description: Referring to FIG. 10, it is clear that the cyprinodonts 4e take unique action based on the kind of toxic substances.
In order to solve the problems, the present inventor has further devised a method including: putting a plurality (for example, 20) of cyprinodonts 4e into the water tank for fish 4d; photographing the cyprinodonts 4e by means of the CCD video camera 1 in a direction of bird's-eye to output data; and analyzing the data with the image processing device 1b.
In order to solve the problem of photographing one cyprinodont from the side wall, the inventor has performed: changing the side photographing system shown in FIG. 10 to the bird's-eye photographing system shown in FIG. 11; using the more (about 20) cyprinodonts; and developing new algorithm. In this way, the present inventor has solved the problem in recent years.
Furthermore, the present inventor has developed algorithm of issuing an alarm in this state.
When about 2 [ppm] concentration of potassium cyanide is contained in the raw water, the cyprinodonts 4e swim weakly toward a water flow to be carried away, thereby being latched by the capture net 4f.

SMILES | effect on the fish [1] | damage or injury of the fish caused by the pollution [1] | organ system of cyprinodonts damaged [2] | unique action taken by cyprinodonts [2]
CC1(C)[C@@H]2CC[C@@]1(C)[C@](C)(O)C2 [2-MIB, 2-methylisoborneol] | hardly affect the fish | neither to be damaged nor to be injured | – | –
COP(=S)(OC)Oc1ccc([N+](=O)[O-])c(C)c1 [Fenitrothion] | – | – | damages nervous systems | madly-rushing action
CC1CCCC2(C)CCCCC12O (stereo not drawn) [geosmin] | hardly affect the fish | neither to be damaged nor to be injured | – | –

Source: US10048243B2, “Automatic water quality surveillance apparatus” (priority 2016, dated 2018)
